Laboratory results reported in patent US11708348B2, “Protease inhibitors for treatment of coronavirus infections” (The Scripps Research Institute, priority 2021, dated 2023).

tested on: SARS-CoV-2 strain USA-WA1/2020; test: microbe, parasite or virus in culture; assay type: cell-based; settings: Severe acute respiratory syndrome coronavirus 2, HeLa-ACE2, 24 h, HeLa-ACE2 cells, SARS-CoV-2 infection, 24 h; bound printed in cell; read-out: EC50, uM (Hela)

Row | Structure (SMILES) | EC50 [µM]
1 | CO[C@@H]1C[C@@H](C(=O)N[C@@H](C[C@@H]2CCNC2=O)C(=O)COC(F)(F)F)N(C(=O)C(=O)Nc2ccccc2F)C1 [Compound 258, (2S,4R)-1-(2-((2-fluorophenyl)amino)-2-oxoacetyl)-4-methoxy-N-((S)-3-oxo-1-((S)-2-oxopyrrolidin-3-yl)-4-(trifluoromethoxy)butan-2-yl)pyrrolidine-2-carboxamide] | > 1

same assay, conditions: Severe acute respiratory syndrome coronavirus 2, HeLa-ACE2, 24 h, HeLa-ACE2 cells, SARS-CoV-2 infection, 24 h; class symbols; read-out: EC50, uM (Hela)

Row | Structure (SMILES) | EC50 [µM]
2 | COCc1ccccc1NC(=O)C(=O)N[C@@H](CC(C)C)C(=O)N[C@@H](C[C@@H]1CCNC1=O)C(=O)COC(F)(F)F [Compound 177, N1-(2-(methoxymethyl)phenyl)-N2-((S)-4-methyl-1-oxo-1-(((S)-3-oxo-1-((S)-2-oxopyrrolidin-3-yl)-4-(trifluoromethoxy)butan-2-yl)amino)pentan-2-yl)oxalamide] | < 0.05
3 | COC[C@@H](Nc1ccccc1F)C(=O)N[C@@H](CC(C)C)C(=O)N[C@@H](C[C@@H]1CCNC1=O)C(=O)COC(F)(F)F [Compound 235, (S)-2-((R)-2-((2-fluorophenyl)amino)-3-methoxypropanamido)-4-methyl-N-((S)-3-oxo-1-((S)-2-oxopyrrolidin-3-yl)-4-(trifluoromethoxy)butan-2-yl)pentanamide] | < 0.05
4 | CC(C)[C@@H](O)C(=O)N1CC2(CC2)C[C@H]1C(=O)N[C@@H](C[C@@H]1CCNC1=O)C(=O)COC(F)(F)F [Compound 356, (S)-5-((R)-2-hydroxy-3-methylbutanoyl)-N-((S)-3-oxo-1-((S)-2-oxopyrrolidin-3-yl)-4-(trifluoromethoxy)butan-2-yl)-5-azaspiro[2.4]heptane-6-carboxamide] | 0.05 to 0.2
5 | CC(C)C[C@H](NC(=O)C(=O)Nc1ccccc1Cl)C(=O)N[C@@H](C[C@@H]1CCNC1=O)C(=O)COc1c(F)c(F)cc(F)c1F [Compound 46, N1-(2-chlorophenyl)-N2-((S)-4-methyl-1-oxo-1-(((S)-3-oxo-1-((S)-2-oxopyrrolidin-3-yl)-4-(2,3,5,6-tetrafluorophenoxy)butan-2-yl)amino)pentan-2-yl)oxalamide] | < 0.05
6 | CC(C)C[C@H](NC(=O)C(=O)Nc1cccc(F)c1F)C(=O)N[C@@H](C[C@@H]1CCNC1=O)C(=O)COc1c(F)c(F)cc(F)c1F [Compound 71, N1-(2,3-difluorophenyl)-N2-((S)-4-methyl-1-oxo-1-(((S)-3-oxo-1-((S)-2-oxopyrrolidin-3-yl)-4-(2,3,5,6-tetrafluorophenoxy)butan-2-yl)amino)pentan-2-yl)oxalamide] | 0.05 to 0.2
7 | CC(C)C[C@@H](OC(=O)Nc1ccccc1)C(=O)N1CC2(CC2)C[C@H]1C(=O)N[C@@H](C[C@@H]1CCNC1=O)C(=O)COC(F)(F)F [Compound 331, (R)-4-methyl-1-oxo-1-((S)-6-(((S)-3-oxo-l-((S)-2-oxopyrrolidin-3-yl)-4-(trifluoromethoxy)butan-2-yl)carbamoyl)-5-azaspiro[2.4]heptan-5-yl)pentan-2-yl phenylcarbamate] | < 0.05
8 | CC(C)C[C@H](NC(=O)C(=O)N[C@@H]1CCCOC1)C(=O)N[C@@H](C[C@@H]1CCNC1=O)C(=O)COc1c(F)c(F)cc(F)c1F [Compound 133, N1-((S)-4-methyl-1-oxo-1-(((S)-3-oxo-1-((S)-2-oxopyrrolidin-3-yl)-4-(2,3,5,6-tetrafluorophenoxy)butan-2-yl)amino)pentan-2-yl)-N2-((R)-tetrahydro-2H-pyran-3-yl)oxalamide] | 0.05 to 0.2

same assay, conditions: Severe acute respiratory syndrome coronavirus 2, HeLa-ACE2, 24 h, HeLa-ACE2 cells, SARS-CoV-2 infection, 24 h; given as bound; read-out: EC50, uM (Hela)

Row | Structure (SMILES) | EC50 [µM]
9 | CC(=O)N[C@H](C(=O)N1CC2(CC2)C[C@H]1C(=O)N[C@@H](C[C@@H]1CCNC1=O)C(=O)COC(F)(F)F)C(C)(C)C [Compound 436, (S)-5-((S)-2-acetamido-3,3-dimethylbutanoyl)-N-((S)-3-oxo-1-((S)-2-oxopyrrolidin-3-yl)-4-(trifluoromethoxy)butan-2-yl)-5-azaspiro[2.4]heptane-6-carboxamide] | > 1

same assay, conditions: Severe acute respiratory syndrome coronavirus 2, HeLa-ACE2, 24 h, HeLa-ACE2 cells, SARS-CoV-2 infection, 24 h; read-out: EC50, uM (Hela)

Row | Structure (SMILES) | EC50 [µM]
10 | O=C(N[C@@H](CC1CC1)C(=O)N[C@@H](C[C@@H]1CCNC1=O)C(=O)COC(F)(F)F)c1cc(Cc2ccccc2)on1 [Compound 462, 5-benzyl-N-((S)-3-cyclopropyl-1-oxo-1-(((S)-3-oxo-1-((S)-2-oxopyrrolidin-3-yl)-4-(trifluoromethoxy)butan-2-yl)amino)propan-2-yl)isoxazole-3-carboxamide] | < 0.05
11 | CC(C)(F)c1cc(C(=O)NC(CC2CCOCC2)C(=O)N[C@@H](C[C@@H]2CCNC2=O)C(=O)COC(F)(F)F)no1 (stereo partly drawn) [Compound 499, 5-(2-fluoropropan-2-yl)-N-(l-oxo-1-(((S)-3-oxo-1-((S)-2-oxopyrrolidin-3-yl)-4-(trifluoromethoxy)butan-2-yl)amino)-3-(tetrahydro-2H-pyran-4-yl)propan-2-yl)isoxazole-3-carboxamide] | 0.05 to 0.2
12 | CC(C)(NC(=O)C(=O)N1C[C@H]2CCCC[C@H]2C[C@H]1C(=O)N[C@@H](C[C@@H]1CCNC1=O)C(=O)COC(F)(F)F)C(F)(F)F [Compound 487, (3S,4aS,8aS)-N-((S)-3-oxo-1-((S)-2-oxopyrrolidin-3-yl)-4-(trifluoromethoxy)butan-2-yl)-2-(2-oxo-2-((1,1,1-trifluoro-2-methylpropan-2-yl)amino)acetyl)-decahydroiso-quinoline-3-carboxamide] | 0.05 to 0.2
13 | CC(C)(C)C[C@@H](O)C(=O)N1CC2(CC2)C[C@H]1C(=O)N[C@@H](C[C@@H]1CCNC1=O)C(=O)COC(F)(F)F [Compound 658, (S)-5-((R)-2-hydroxy-4,4-dimethylpentanoyl)-N-((S)-3-oxo-1-((S)-2-oxopyrrolidin-3-yl)-4-(trifluoromethoxy)butan-2-yl)-5-azaspiro[2.4]heptane-6-carboxamide] | < 0.05
14 | O=C(C(=O)N1CC2(CC2)C[C@H]1C(=O)N[C@@H](C[C@@H]1CCNC1=O)C(=O)COC(F)(F)F)c1ccccc1 [Compound 674, (S)-N-((S)-3-oxo-1-((S)-2-oxopyrrolidin-3-yl)-4-(trifluoromethoxy)butan-2-yl)-5-(2-oxo-2-phenylacetyl)-5-azaspiro[2.4]heptane-6-carboxamide] | 0.05 to 0.2
15 | O=C(NCC(F)(F)F)C(=O)N[C@@H](CC1CC1)C(=O)N[C@@H](C[C@@H]1CCNC1=O)C(=O)COC(F)(F)F [Compound 517, N1-((S)-3-cyclopropyl-1-oxo-1-(((S)-3-oxo-1-((S)-2-oxopyrrolidin-3-yl)-4-(trifluoromethoxy)butan-2-yl)amino)propan-2-yl)-N2-(2,2,2-trifluoroethyl)oxalamide] | < 0.05
16 | CC1(C)[C@@H]2[C@@H](C(=O)N[C@@H](C[C@@H]3CCNC3=O)C(=O)COC(F)(F)F)N(C(=O)C(=O)NC3(C(F)(F)F)CC3)C[C@@H]21 [Compound 475, (1R,2S,5S)-6,6-dimethyl-N-((S)-3-oxo-1-((S)-2-oxopyrrolidin-3-yl)-4-(trifluoromethoxy)butan-2-yl)-3-(2-oxo-2-((1-(trifluoromethyl)-cyclopropyl)amino)acetyl)-3-zabicyclo[3.1.0]hexane-2-carboxamide] | 0.05 to 0.2
17 | O=C(NC1CC1)C(=O)N1CC2(CC2)C[C@H]1C(=O)N[C@@H](C[C@@H]1CCNC1=O)C(=O)COC(F)(F)F [Compound 746, (S)-5-(2-(cyclopropylamino)-2-oxoacetyl)-N-((S)-3-oxo-1-((S)-2-oxopyrrolidin-3-yl)-4-(trifluoromethoxy)butan-2-yl)-5-azaspiro[2.4]heptane-6-carboxamide] | 0.05 to 0.2
18 | O=C(NC1CC1)C(=O)N[C@@H](CC1CC1)C(=O)N[C@@H](C[C@@H]1CCNC1=O)C(=O)COC(F)(F)F [Compound 586, N1-cyclopropyl-N2-((S)-3-cyclopropyl-1-oxo-1-(((S)-3-oxo-1-((S)-2-oxopyrrolidin-3-yl)-4-(trifluoromethoxy)butan-2-yl)amino)propan-2-yl)oxalamide] | < 0.05
19 | CC(C)C[C@@H](O)C(=O)N1CC2(CC2)C[C@H]1C(=O)N[C@@H](C[C@@H]1CCCNC1=O)C(=O)COc1c(F)c(F)c(F)c(F)c1F [Compound 779, (S)-5-((R)-2-hydroxy-4-methylpentanoyl)-N-((S)-3-oxo-1-((S)-2-oxopiperidin-3-yl)-4-(perfluorophenoxy)butan-2-yl)-5-azaspiro[2.4]heptane-6-carboxamide] | < 0.05

same assay, conditions: Severe acute respiratory syndrome coronavirus 2, HeLa-ACE2, 24 h; read-out: EC50, uM (Hela)

Row | Structure (SMILES) | EC50 [µM]
20 | CC(C)C[C@H](NC(=O)C(=O)Nc1ccccc1)C(=O)N[C@@H](C[C@@H]1CCNC1=O)C(=O)COP(C)(=O)c1ccccc1 (stereo partly drawn) [Compound 653, (S)-3-((S)-4-methyl-2-(2-oxo-2-(phenylamino)acetamido)pentanamido)-2-oxo-4-((S)-2-oxopyrrolidin-3-yl)butyl methyl(phenyl)phosphinate] | 0.2 to 0.5
21 | CC(C)(C)[C@H](NC(=O)C(F)(F)F)C(=O)N1C[C@H]2[C@@H]([C@H]1C(=O)N[C@@H](C[C@@H]1CCNC1=O)C(=O)COC(F)(F)F)C2(C)C [Compound 264, (1R,2S,5S)-3-((S)-3,3-dimethyl-2-(2,2,2-trifluoroacetamido)butanoyl)-6,6-dimethyl-N—((S)-3-oxo-1-((S)-2-oxopyrrolidin-3-yl)-4-(trifluoromethoxy)butan-2-yl)-3-azabicyclo[3.1.0]hexane-2-carboxamide] | < 0.05
22 | CC(C)(C)[C@H](NC(=O)C(F)(F)F)C(=O)N1C[C@@H]2CCC[C@@H]2[C@H]1C(=O)N[C@@H](C[C@@H]1CCNC1=O)C(=O)COC(F)(F)F [Compound 266, (1S,3aR,6aS)-2-((S)-3,3-dimethyl-2-(2,2,2-trifluoroacetamido)-butanoyl)-N-((S)-3-oxo-1-((S)-2-oxopyrrolidin-3-yl)-4-(trifluoromethoxy)butan-2-yl)octahydrocyclo-penta[c]pyrrole-1-carboxamide] | < 0.05
